Measurements from patent publication US10463658B2, “Method of inhibiting FLT3 kinase” (AROG Pharmaceuticals, LLC, priority 2013, dated 2019).

Test system: Molm 13-RES-luc cells that expressed FLT3-ITD/D835Y
Assay: MTT assay in tandutinib-resistant Molm 13-RES-luc cells
Assay type: cell-based
Settings: Homo sapiens, tandutinib resistant Molm 13 cells, mean of 3 studies with 6 replicates each (n=18), read-out: IC50 pFLT3 (text: cell viability, MTT assay)

## CC1(COc2ccc3c(c2)ncn3-c2ccc3cccc(N4CCC(N)CC4)c3n2)COC1 [Crenolanib, reference compound]
  IC50: 3.3 nM
